Test results published in patent publication US9314510B2, “Human laminin α2 chain LG3 domain and active peptides promoting cell adhesion, spreading, migration, and neurite outgrowth” (SNU R&DB Foundation, priority 2011, dated 2016).
Ends that are not written are not given here.

B1: rLG3: recombinant His6-tagged human laminin α2 chain LG3 domain, amino acids 2537 to 2745 (protein, listed as Homo sapiens)
chain: VELSPVPIDVGTEINLSFSTKNESGIILLGSGGTPAPPRRKRRQTGQAYYVILLNRGRLEVHLSTGARTMRKIVIRPEPNLFHDGREHSVHVERTRGIFTVQVDENRRYMQNLTVEQPIEVKKLFVGGAPPEFQPSPLRNIPPFEGCIWNLVINSVPMDFARPVSFKNADIGRCAHQKLREDEDGAAPAEIVIQPEPVPTPAFPTPTPV
modifications: His6 tag

How the values were obtained:
[1] = system: PC12 cells; assay: Cell spreading assay on coated plates (cell surface area); format: cell-based, rat; settings: 3 h, laminin 5 μg/mL, rLG proteins 25 μg/mL, peptides 62.5 μg/mL
Protocol: To determine cell spreading assays, the cells cultured on plates coated with each rLG domain protein for 1 h or 3 h in Experimental example <2-1> were fixed with 10% formalin. Then, the fixed cells were stained with 0.05% crystal violet for 1 h and plates were gently washed with PBS three times. The surface area of cells was measured with Image-Pro plus software (Version 4.5; Media Cybernetics, Silver Spring, Md.).
The present inventors compared the cellular activities of Ln2-LG3-P2 peptide to scrambled peptide (SEQ ID NO:20, NWEIRCIPGNPF) of Ln2-LG3-P2 peptide and Ln2-LG3-P1 peptide to Ln2-LG3-P5 peptide at a concentration of 62.5 μg/mL where the cell adhesion activity was the maximum. […] PC12 cells were cultured on plates which were coated in the same way for 3 h in serum-free medium and the cell spreading was observed.
Specifically, to observe cell adhesion, spreading, migration, and neurite outgrowth promotion, the methods described in Experimental examples <2-1> to <2-3> were used and PC12 cells were cultured on plates coated with laminin (5 μg/mL), rLG3 (25 μg/mL), and rLG3-M1 (25 μg/mL) and observed. To observe cell adhesion, PC12 cells were incubated on the coated plates for 1 h and to observe cell spreading, PC12 cells were incubated on the coated plates for 3 h. To observe cell migration, PC12 cells were incubated on the coated plates for […].
To measure cell adhesion, spreading, migration, and neurite outgrowth promotive activities of PC12 cells using the prepared synthetic peptides that are N- and C-terminal truncated or C-terminal added peptides of the Ln2-LG3-P2 peptide, peptides described in Table 1 were coated onto plates at 62.5 μg/mL and PC12 cells were seeded thereon.

[2] = system: PC12 cells; assay: Immunostaining of actin stress fibers and focal adhesions; format: cell-based, rat; settings: PC12 cells on coated chamber slides, 3 h, serum-free
Protocol: Specifically, for immunostaining, PC12 cells were incubated on Lab-Tek chamber slides (Nalge Nunc International, Rochester, N.Y.) coated with laminin (5 μg/mL), rLG domain proteins (25 μg/mL), or Scrambled peptide (SP) (25 μg/well) in serum-free medium for 3 h at 37° C. Lab-Tek chamber slides were coated with BSA for the control. After rinsing with PBS, PC12 cells were fixed with 3.7% formalin for 20 min and permeabilized with 0.5% Triton X-100 for 5 min. PC12 cells were incubated with primary antibodies for 12 h at 4° C. The primary antibodies used were 1:500 anti-vinculin (Sigma-Aldrich 9131), or 1:300 rhodamin-phalloidin (Invitrogen R154) antibodies. After rinsing with PBS, PC12 cells were immunostained with FITC-conjugated anti-mouse IgG antibody (Jackson ImmunoResearch Laboratories, West Grove, Pa.) or rhodamin-conjugated anti-mouse IgG antibody (Santa Cruz Biotechnology) for 1 h at room temperature. After being washed three times with PBS, the stained PC12 cells were mounted and photographed using a confocal laser scanning microscope (FV300; Olympus, Japan).

[3] = system: FAK Tyr-397; assay: FAK phosphorylation by western blotting; format: cell-based, rat; settings: PC12 cells on coated dishes; 15, 30, 60 min
Protocol: For measuring FAK phosphorylation, specifically, PC12 cells were starved for 12 h by replacing RPMI 1640 medium with 0.1% FBS. PC12 cells (2×10^6 cells) were plated on 60-mm dishes precoated with laminin (5 μg/mL), rLG3 (25 μg/mL), or Ln2-LG3-P2 (25 μg/well), and allowed to adhere for the indicated times (15 min, 30 min, and 60 min). Cells were washed with ice-cold PBS and lysed with 200 μL of RIPA buffer (50 mM Tris-HCl, pH 7.4, 150 mM NaCl, 1 mM EDTA 1% Triton X-100, 1 mM PMSF, 2 mM Na3VO4, 1 mM glycerol phosphate) containing a protease inhibitor cocktail. RIPA lysates were denatured using SDS sample buffer (50 mM Tris/HCl, pH 6.8, 2% SDS, 10% glycerol, 0.1% bromophenol blue, 50 mM dithiothreitol) and analysed by SDS-PAGE. The separated proteins were electroblotted onto an Immobilon-P membrane (Millipore, Bedford, Mass.) and probed with primary antibodies to FAK Tyr-397 (Biosource, Camarillo, Calif.), FAK (Upstate Biotechnology Inc., Lake Placid, N.Y.). All blots were then detected with HRP-conjugated secondary antibodies (Cell Signaling). Signals were detected by ECL (iNtRON Biotechnology, Korea).

[4] = target: T1, integrin β1 (Rattus norvegicus, UniProt P49134); assay: Immunoprecipitation of PKCα, PKCδ and FAK with His6-rLG3 or integrin β1; format: cell-based; settings: PC12 cells on coated dishes, 30 min
T1 construct: whether PKCα and -δ exist as associated complexes in PC12 cells seeded on laminin-, rLG3-, and Ln2-LG3-P2-coated dishes; endogenous in cells; host or cells: PC12 cells
Protocol: Specifically, for immunoprecipitation, PC12 cells were starved for 12 h with RPMI 1640 medium containing 0.1% FBS. Cells were detached and resuspended in serum-free medium with 0.1% BSA. PC12 cells (4×10^6 cells/100-mm dish) were seeded on laminin (5 μg/mL)-, rLG3 (25 μg/mL)-, or Ln2-LG3-P2 (25 μg/well)-coated dishes and allowed to attach for 30 min at 37° C. After incubation, cells were washed with ice-cold PBS, lysed with RIPA buffer containing a protease inhibitor cocktail. The lysates were centrifuged and the supernatants were preincubated with 50 μL of immobilized protein G beads (Upstate Biotechnology Inc.) for 1 h at 4° C. to remove nonspecific binding. The supernatants were incubated with anti-His6 (Roche, Mannheim, Germany), anti-integrin (Santa Cruz Biotechnology), or anti-PKCδ (Santa Cruz Biotechnology) antibodies for 2 h at 4° C. The immunocomplexes were precipitated with immobilized protein G beads for 12 h at 4° C. After centrifugation, beads carrying the immune complexes were washed four times with RIPA buffer. Immunoprecipitates were resuspended in SDS sample buffer, boiled for 5 min, and analysed by Western blotting.

T1 sequence (P49134 21-799): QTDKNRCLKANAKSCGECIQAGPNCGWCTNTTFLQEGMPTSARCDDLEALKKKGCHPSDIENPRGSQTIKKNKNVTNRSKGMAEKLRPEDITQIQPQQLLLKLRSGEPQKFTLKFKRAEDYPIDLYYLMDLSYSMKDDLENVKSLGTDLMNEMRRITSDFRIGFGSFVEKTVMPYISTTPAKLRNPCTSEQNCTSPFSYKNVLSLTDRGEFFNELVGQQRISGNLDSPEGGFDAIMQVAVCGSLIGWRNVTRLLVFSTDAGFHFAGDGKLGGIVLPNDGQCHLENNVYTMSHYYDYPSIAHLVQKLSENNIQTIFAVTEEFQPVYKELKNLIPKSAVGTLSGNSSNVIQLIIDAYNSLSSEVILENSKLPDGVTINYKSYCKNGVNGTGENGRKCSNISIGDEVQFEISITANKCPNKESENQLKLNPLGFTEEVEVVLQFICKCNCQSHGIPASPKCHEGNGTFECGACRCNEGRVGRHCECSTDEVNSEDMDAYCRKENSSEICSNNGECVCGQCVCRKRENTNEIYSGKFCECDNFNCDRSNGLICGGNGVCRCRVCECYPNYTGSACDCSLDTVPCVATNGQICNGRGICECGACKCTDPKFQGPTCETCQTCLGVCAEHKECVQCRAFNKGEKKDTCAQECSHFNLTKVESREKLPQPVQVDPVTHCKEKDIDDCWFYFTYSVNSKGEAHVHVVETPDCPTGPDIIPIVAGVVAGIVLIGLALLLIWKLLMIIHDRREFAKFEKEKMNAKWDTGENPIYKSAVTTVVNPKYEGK

| Molecule | cell spreading [1] | actin stress fiber formation and focal adhesions [2] | cell spreading (immunostaining) [2] | time at which FAK phosphorylation levels at Tyr-397 peaked [3] [min] | proteins in integrin β1 immunoprecipitates [4] | proteins in anti-His6 immunoprecipitates [4] |
| --- | --- | --- | --- | --- | --- | --- |
| RNIPPFEGCIWN (RNIPPFEGCIWN-NH2; listed as Homo sapiens) [Ln2-LG3-P2, 12-mer peptide, position 2675 to 2686 in human laminin α2 chain] | comparable to that of rLG3 | formed stress fiber formation, and focal adhesions but to a lesser degree than those on laminin | spread well | 15 | PKCα, PKCδ, and FAK were also observed | – |
| laminin [reference compound] | promoted cell spreading | formed actin stress fibers and focal adhesions | spread very well | 15 | PKCα, PKCδ, and FAK were also observed | – |
| B1 | induced cell spreading | formed stress fiber formation, and focal adhesions but to a lesser degree than those on laminin | spread well | 15 | PKCα, PKCδ, and FAK were also observed | PKCα, PKCδ, and FAK were observed |
